Values after ≈ are worked out from the molar mass of the structure shown.
Key:
Format in all cases: cell-based
[1] = tested on: Klebsiella pneumoniae ATCC13883; test: Microscopy-based AST (MIC) from spiked blood culture bottle after immunomagnetic separation
Experimental: First, Streptavidin coated beads were washed and immobilized. The washing buffer and the immobilization process may be different depending on the application. […] The typical binding capacity per mg (100 μL) of magnetic beads used is approximately 20 μg of biotinylated antibody. After the coating, some washes were performed with a phosphate saline buffer containing 0.01% of BSA (w/v) (adjusted pH 7.4) and then beads were finally resuspended to the desired concentration for the application. The antibody used was a biotin Klebsiella Polyclonal Antibody (PA1-73177, Invitrogen) and the magnetic beads used were Dynabeads MyOne Streptavidin T1 (65601, Thermofisher Scientific).
Blood samples were prepared from a previously mixed single large blood pool which was spiked with the appropriate amount of bacteria (Klebsiella pneumoniae ATCC13883) depending on the target inoculum (around 100 CFU). After the pool was spiked, 10 mL were transferred to a previously labelled blood culture system (442023, BD BACTEC™ Plus Aerobic/F) and mixed with an agitation platform (5 minutes at 150 rpm). […]
The immunomagnetic separation of the bacteria was performed using a 15 mL tube containing 5 mL of a matrix extracted from a blood culture bottle and 100 μL of beads coated with anti-K. pneumoniae antibodies. […] The samples were also observed under an inverted fluorescence microscope in order to determine the number of bacteria present in the sample and calculate the adjustment needed to perform the AST test. 5 μL of each sample were transferred to a 384-well plate with flat polystyrene film bottom and incubated with fluorescence dyes (SYBR Green and Propidium Iodide) during 10 minutes at room temperature in the dark. The 384-well plate was centrifuged during 1 minute at 3000 g in a swinging-bucket centrifuge and observed in an inverted fluorescence microscope. […] Images were analyzed with a custom software to determine the number of bacteria. […]
Samples were analyzed at time 0 of incubation and after 5 h incubation (with and without antibiotic). […]

[2] = tested on: Klebsiella pneumoniae (ATCC13883); test: Microscopy-based AST (MIC) from liquid culture
Experimental: Bacteria was grown in a liquid culture until an exponential phase in culture media. The cultures were diluted in culture media (Mueller Hinton cation adjusted broth) and was incubated at a final concentration of 2×10^4 CFU/mL during 5 hours at 37° C. at different concentrations of […] in a final volume of 10 μL. Gentamicin concentrations tested were 4, 2, 1, 0.5, 0.25 and 0.125 mg/L. Three replicates were performed for each antibiotic concentration.
(§1) Samples were analyzed at time 0 of incubation and after 5 hours incubation (with and without antibiotic). Samples were incubated with fluorescence dyes (SYBR Green and Propidium Iodide) during 10 minutes at room temperature in the dark. After dye incubation, a sample of 1 μL was diluted with 4 μL of buffer (NaCl 0.9%) and transferred to a 384-well plate with flat polystyrene film bottom. The 384-well plate was centrifuged during 1 minute at 3000 g in a swinging-bucket movement and observed in an inverted fluorescence microscope. For each sample, a composite image covering the bottom of each well was constructed. Images were analyzed with a custom software to count bacteria, detect filamentous bacteria, counts red bacteria, and record the brightness of bacteria. These images are illustrated in FIG. 23A
This graph is illustrated in FIG. 23B.

[3] = tested on: Klebsiella pneumoniae (IHMA1977064); test: Microscopy-based AST (MIC) from liquid culture
Experimental: The minimal inhibitory concentration was determined using embodiments disclosed herein for one strain of Gram-negative bacteria Klebsiella pneumoniae (IHMA1977064) with an MIC of 8 mg/L to meropenem according to the broth microdilution method. Bacteria was grown in liquid culture until an exponential phase in culture media. The cultures were diluted in culture media (Mueller Hinton cation adjusted broth) and was incubated at a final concentration of 2×10^4 CFU/mL during 5 hours at 37° C. at different concentrations of meropenem in a final volume of 10 μL. Meropenem concentrations tested were 32, 16, 8, 4, 2 and 1 mg/L […]. Three replicates were performed for each antibiotic concentration.
Samples were analyzed at time 0 of incubation and after 5 hours incubation (with and without antibiotic). 5 μL of each sample were transferred to a 384-well plate with flat polystyrene film bottom and incubated with fluorescence dyes (SYBR Green and Propidium Iodide) during 10 minutes at room temperature in the dark. The 384-well plate was centrifuged during 1 minute at 3000 g in a swinging-bucket movement and observed in an inverted fluorescence microscope. For each sample, a composite image covering the bottom of each well was constructed. Images were analyzed with a custom software to count bacteria, detect filamentous bacteria, counts red bacteria, and record the brightness of bacteria. These images are illustrated in FIG. 24A.
This graph is illustrated in FIG. 24B.

[4] = tested on: Klebsiella pneumoniae (IHMA1977064); test: Broth microdilution method MIC; conditions: K. pneumoniae IHMA1977064, read-out: MIC according to broth microdilution method
[5] = tested on: Staphylococcus aureus resistant (ATCC43300); test: Microscopy-based AST (MIC) from liquid culture
Experimental: (§2) The minimal inhibitory concentration was determined for two strains of Gram-positive bacteria Staphylococcus aureus, one susceptible (ATCC29213) and one resistant (ATCC43300) to erythromycin, according to embodiments described herein. […] Bacteria cultures were diluted in culture media (Mueller Hinton cation adjusted broth) and were incubated at a final concentration of 2×10^4 CFU/mL during 5 hours at 37° C. at different concentrations of […] in a final volume of 10 μL. S. aureus strain susceptible to erythromycin was tested at 1, 0.5, 0.25, 0.125, 0.06 and 0.03 mg/L, whereas resistant strain was tested at 4, 2, 1, 0.5, 0.25 and 0.125 mg/L of erythromycin. Three replicates were performed for each antibiotic concentration.
as §1, with “incubation” for “incubation,”, “bacteria.” for “bacteria. These images are illustrated in FIG. 23A”
(§3) Data obtained from images was used to perform a Graph either for S. aureus susceptible and resistant to erythromycin (FIGS. 25A and 25B, respectively).

[6] = tested on: Staphylococcus aureus susceptible (ATCC29213); test: Microscopy-based AST (MIC) from liquid culture
Experimental: as §2
as §1, with “incubation” for “incubation,”, “bacteria.” for “bacteria. These images are illustrated in FIG. 23A”
as §3

[7] = tested on: Staphylococcus aureus susceptible (ATCC29213); test: Broth microdilution method MIC; conditions: S. aureus ATCC29213
[8] = tested on: Staphylococcus aureus resistant (ATCC43300); test: Broth microdilution method MIC; conditions: S. aureus ATCC43300
[9] = tested on: Klebsiella pneumoniae ATCC13883; test: Microscopy-based AST (MIC) from spiked blood tube sample after lysis, enrichment and immunomagnetic separation
Experimental: First, Streptavidin coated beads were washed and immobilized. […] The typical binding capacity per mg (100 μL) of the magnetic beads used is approximately 20 μg of biotinylated antibody. After the coating, some washes with a phosphate saline buffer containing 0.01% of BSA (w/v) (adjusted pH 7.4) were performed. Finally, beads were resuspended to the desired concentration for the application. The antibody used was a biotin Klebsiella Polyclonal Antibody (PA1-73177, Invitrogen) and the magnetic beads used were Dynabeads MyOne Streptavidin T1 (65601, Thermofisher Scientific).
Blood samples were prepared from a single large blood pool from donors collected in 10 mL EDTA blood tubes which was spiked with the appropriate amount of bacteria (Klebsiella pneumoniae ATCC13883) depending on the target inoculum (around 100 CFU/10 mL). After the pool was spiked, 10 mL were transferred to a previously labelled 15 mL tube containing a lysing agent (700 μL of Isolator BC0507C, Oxoid) and an immiscible fluorocarbon oil (20 μL of Fluorinert™ FC-40 F9755, Sigma-Aldrich). To lyse and concentrate, samples were incubated for a short period of time (30 seconds) under rotatory movement at low speed (10 rpm) and centrifugated at 12.000 g force for 5 minutes with a fixed angle rotor. The supernatant of each sample was discarded until 500 μL used to prepare the matrix for the enrichment step. […]
For the immunomagnetic separation of the bacteria from the blood, 100 μL of antibody coated beads were added to each sample tube. […] These samples were also observed under an inverted fluorescence microscope in order to know the bacteria present in the sample and calculate the amount needed to perform the AST test, which was the next and last step in this end-to-end assay. 5 μL of each sample were transferred to a 384-well plate with a flat polystyrene film bottom and incubated with fluorescence dyes (SYBR Green and Propidium Iodide) during 10 min at room temperature in the dark. […]

[10] = tested on: Klebsiella pneumoniae ATCC13883; test: Broth microdilution method MIC; conditions: K. pneumoniae ATCC13883, read-out: MIC according to broth microdilution method

## Gentamicin
[1]; at 0.125 and 0.06 mg/L
  bacterial growth after 5 hours incubation: growth
[1]; at a concentration ≥0.25
  bacterial growth after 5 hours incubation: did not grow
[1]; blood culture bottle sample, 2×10^4 CFU/mL, 5 hours at 37° C., image analysis
  MIC: 0.25 µg/mL
[2]; at 0.125 mg/L
  bacterial growth after 5 hours incubation: bacterial growth
[2]; at a concentration ≥0.25 mg/L
  bacterial growth after 5 hours incubation: did not grow
[2]; liquid culture, 2×10^4 CFU/mL, 5 hours at 37° C., image analysis
  MIC: 0.25 µg/mL

## C[C@@H](O)[C@H]1C(=O)N2C(C(=O)O)=C(S[C@@H]3CN[C@H](C(=O)N(C)C)C3)[C@H](C)[C@H]12 [meropenem, Meropenem]
[3]; Klebsiella pneumoniae, liquid culture, 2×10^4 CFU/mL, 5 hours at 37° C., image analysis
  MIC: 4 µg/mL (≈ 10.4 µM)
[3]; at 2 and 1 mg/L
  bacterial growth after 5 hours incubation: bacterial growth
[3]; at a concentration ≥4 mg/L
  bacterial growth after 5 hours incubation: did not grow
[4]
  MIC: 8 µg/mL (≈ 20.9 µM)

## CC[C@H]1OC(=O)[C@H](C)[C@@H](O[C@H]2C[C@@](C)(OC)[C@@H](O)[C@H](C)O2)[C@H](C)[C@@H](O[C@@H]2O[C@H](C)C[C@H](N(C)C)[C@H]2O)[C@](C)(O)C[C@@H](C)C(=O)[C@H](C)[C@@H](O)[C@]1(C)O [erythromycin, Erythromycin]
[5]; Staphylococcus aureus, S. aureus ATCC43300, 2×10^4 CFU/mL, 5 hours at 37° C., highest concentration tested 4 mg/L
  MIC: ≥ 4 µg/mL
[5]; at 4 mg/L and lower concentrations
  bacterial growth after 5 hours incubation: showed growth
[6]; Staphylococcus aureus, S. aureus ATCC29213, 2×10^4 CFU/mL, 5 hours at 37° C., image analysis
  MIC: 0.25 µg/mL (≈ 0.341 µM)
[6]; at 0.125 mg/L
  bacterial growth after 5 hours incubation: showed growth
[6]; at a concentration ≥0.25 mg/L
  bacterial growth after 5 hours incubation: did not grow
[7]
  MIC: 0.25 to 0.5 µg/mL (≈ 0.341 to 0.681 µM)
[8]
  MIC: ≥ 512 µg/mL

## O=C(O)c1cn(C2CC2)c2cc(N3CCNCC3)c(F)cc2c1=O [ciprofloxacin, Ciprofloxacin]
[9]; Klebsiella pneumoniae, ATCC13883, 5 h
  MIC: 0.015 µg/mL (≈ 0.0453 µM)
[9]; at 0.008 and 0.004 mg/L
  bacterial growth after 5 hours incubation: growth
[9]; at a concentration ≥0.015 mg/L
  bacterial growth after 5 hours incubation: did not grow
[10]
  MIC: 0.03 µg/mL (≈ 0.0905 µM)
